Assay results: patent publication US20090169478A1, “In Vivo Imaging and Therapy with Magnetic Nanoparticle Conjugates” (priority 2005, published 2009)
Entries after “also recorded” stand apart in the source; their conditions may differ. Non-standard residues stand in square brackets, D forms with d. Residues, ends and D or L forms follow the SMILES beside them. No end group written: not given here. pGlu = O=C1CC[C@@H](C(=O)O)N1

Key:
[1] = system: MDA-MB-435S.luc tumor bearing mice; test: Treatment of tumor-xenografted mice (Example 29); type: in vivo, mouse; settings: for tumor weights at necropsy: tail vein injections at 3, 4 and 5 weeks post-xenograft, 28 days after the start of treatment
Excerpt: Mice were sacrificed and necropsied 6 weeks post-xenografts. […] Bodyweights, liver weights, and gonadal weights remained stable during all treatments. The breast cancer tumors and metastases were specifically targeted and destroyed by LHRH-conjugated SPIONs carrying a toxin (hecate). The same particles may be used for simultaneous treatment and imaging, e.g., for directly monitoring treatment response in cancer patients.

[2] = system: MDA-MB-435S.luc breast cancer cells; test: Effect of spacer molecule on cellular iron uptake (Example 27); type: cell-based, human; settings: iron incubation 1 mg/ml, 3 hours; for iron accumulation in the breast cancer cells in the presence of LHRH: free LHRH present
Protocol: The effect of a spacer molecule on cellular uptake was tested in vitro on MDA-MB-435S.luc breast cancer cells, which express LHRH receptors. Iron incubation was conducted at 1 mg/ml for different conditions for 3 hours. Accumulation in the breast cancer cells was 82.3±25 pg/cell for SPIONs, 165±16 pg/cell for LHRH−SPIONs, and 223±16 pg/cell with LHRH-Glu-SPION. […] These observations support our hypothesis that iron uptake was driven by receptor-mediated endocytosis.

[3] = Surface charge of nanoparticles; type: physicochemical
Excerpt: The magnetic nanoparticle preferably comprises primarily Fe3O4, rather than the Fe2O3 that has been used for most prior magnetic nanoparticles. The Fe3O4 particle surface contains amine groups that initially prevent agglomeration, eliminating the need for a coating such as a dextran or other intermediate coatings such as have been used in most prior magnetic nanoparticles. […] The only “coating” that need be used is the targeting agent itself, one with specificity for the target cells (or a combination of targeting agent and toxin or drug). The targeting agent, and the optional toxin or drug are covalently linked to the nanoparticle via amide linkages formed by reaction with the amine groups on the particles. The targeting agent may, for example, be a hormone, ligand, or antibody, or a fragment thereof to assist in selectively directing the particles to the cells of interest and facilitating their intracellular up-take and accumulation. The optional toxin or drug may, for example, be a lytic peptide, other peptide toxin, or other toxin or drug. Our studies have shown that reducing the amount of ligand/coating on the nanoparticles increases macrophage recognition and incorporation. By optionally distancing the ligand from the nanoparticle surface through a spacer molecule, ligand specificity may be retained while increasing cellular uptake. […]

[4] = system: MDA-MB-435S.luc xenograft-bearing mouse; settings: 250 mg/kg tail vein, 20 hours, 6 mice per group
Protocol: The mice were euthanized 20 hours after the injections; and their tumors, lungs, liver, heart, kidney, pancreas, spleen, and gonads were collected. Portions of the organs and tumors were embedded in paraffin and tested for iron using Prussian blue staining.

[5] = system: MDA-MB-435S.luc xenograft-bearing mouse; test: Iron content of tissue homogenates, tumor and kidney (Example 9); type: in vivo; settings: 250 mg/kg tail vein, 20 hours
Protocol: Portions of the tissue samples from Example 8 were homogenized, and iron content was determined in calorimetric assays. The amounts of accumulated iron per gram total organ mass could thus be determined. […] When nanoparticles alone were injected, the iron content in tumors was only about 4%.

[6] = system: breast cancer cells MDA-MB-435S; test: In vitro uptake of ligand-conjugated SPIONs (Example 10); type: cell-based, human; settings: MDA-MB-435S cells, no free ligand
Protocol: (§1) LHRH−SPIONs and βCG/LH-SPIONs were tested on breast cancer cells MDA-MB-435S, on Chinese Hamster Ovary cells, on rat LH-receptor-transfected Chinese Hamster Ovary cells, and on mouse Sertoli cells. Experiments were conducted in the presence of LHRH, βCG, or neither. […] In addition, we observed that co-incubation with the free peptide ligands blocked the receptors that otherwise enabled the ligand-conjugated SPIONs to enter cells through receptor-mediated endocytosis. The uptake was then primarily via phagocytosis or pinocytosis at a low rate, similar to that for unconjugated SPIONs. The observed uptake was specific; the quantity of iron nanoparticles within the cells was substantially higher for receptor-mediated uptake.

[7] = system: Chinese Hamster Ovary cells; mouse Sertoli cells; test: In vitro uptake in cell lines that do not express the appropriate receptors; type: cell-based; settings: listed as LHRH−SPIONs
Protocol: as §1

[8] = system: female nude mice with human breast MDA-MB-435S.luc xenograft; settings: mouse, in vivo
Protocol: (§2) Targeting Human Breast Cancer Xenograft and their Metastases with LHRH−SPIONs in vivo. To evaluate the distribution of LHRH−SPIONs and unconjugated SPIONs in vivo, female nude mice with human breast MDA-MB-435S.luc xenograft as described above were injected intravenously with 250 mg/kg LHRH-SPIONs or with unconjugated SPIONs, 35 days after tumor inoculation. The mice were sacrificed 20 h after injection, and the organs and tumors were collected, weighed and analyzed for iron and luciferase. Portions of the organs and tumors were homogenized and their iron content determined spectrophotometrically after reaction with Prussian blue, while other portions were analyzed after fixation by transmission electron microscopy.
The design of this cancer model was such that all tumor cells expressed luciferase, meaning that the presence of luciferase was inherently synonymous with the presence of cancer cells. By contrast, the presence of iron was not inherently synonymous with the presence of cancer cells. The goal of this experiment was to test the efficacy of the novel system at specifically delivering iron to cancer cells.
(§3) Statistical analyses were conducted on raw data by ANOVA. We obtained the ranks of the data, and then conducted a Kruskal-Wallis test. Differences were considered significant at the P<0.05 level. Rank data and variance stabilizing transformations were included.

tumor-free mice = settings: mouse, in vivo, iv
Protocol: as §2, §3

[9] = system: mice bearing the MDA-MB-435S.luc tumors; settings: after sequential injections
Excerpt: See FIGS. 3(a) through (d), showing photographs of Prussian Blue-stained sections from lungs of mice bearing the MDA-MB-435S.luc tumors. FIG. 3(a) depicts a saline-injected control. FIG. 3(b) depicts injection with unconjugated SPIONs. FIGS. 3 (c) and (d) depict injection with conjugated LHRH−SPIONs.

human macrophages = test: In vitro macrophage uptake of nanoparticles (Example 26); type: cell-based; settings: iron concentration of 20 μg/mL
[10] = system: MCF-7, MDA-MB-435S.luc and TM4 cell lines; test: In vitro toxicity of constructs on three cell lines, cell line not given; type: cell-based; settings: FIG. 4
Excerpt: FIG. 4 depicts toxicity measurements of different constructs on three cell lines.
Pancreatic, prostate, breast, and lung cancers may be targeted by LHRH, linked to a toxin or drug such as a lytic peptide and to a SPION. In one study we tested the use of LHRH−SPIONs conjugated to a toxin or drug for both treatment and imaging of tumors and metastases. A particle with a ligand and a toxin (drug) may be made in at least three different configurations: ligand-toxin(drug)-SPION, ligand-SPION-toxin(drug), or toxin(drug)-ligand-SPION. […] (The potential construct SPION-LHRH-Hecate was not tested in these experiments.) See FIG. 4. […] Based on the results reported above, the introduction of a spacer is expected to improve ligand-receptor interaction; and, in the case of a lytic peptide, to improve the peptide-membrane interaction. The spacer may also improve plasma stability of the particles.

[11] = system: tumor-xenograft-bearing mice; settings: 2, 10, 30 and 60 days after injection
Protocol: Pharmacokinetics of iron nanoparticles. To determine the pharmacokinetic profile of SPIONs and their conjugates, 4 groups of tumor-xenograft-bearing mice (n=10) are injected with the various concentrations of conjugated SPIONs as determined above. A fifth group serves as saline control. The mice are housed for 2, 10, 30, and 60 days after injection, and are then sacrificed to determine iron content in peripheral tissues. This experiment uses 50 female nude mice, and will establish the excretion profile of LHRH−SPIONs over a period of 60 days.

[12] = system: male nude mice bearing tumors from human prostate cancer line PC-3.luc; settings: mouse, in vivo
Excerpt: This experiment employed male nude mice bearing tumors from human prostate cancer line PC-3.luc (with luciferase reporter).

rats = settings: rat, in vivo, iv, 250 mg/kg; cited from earlier work

CC(C)C[C@H](NC(=O)[C@H](C)NC(=O)[C@H](CCCCN)NC(=O)[C@H](CCCCN)NC(=O)[C@H](CC(C)C)NC(=O)[C@H](C)NC(=O)[C@H](CCCCN)NC(=O)[C@H](CCCCN)NC(=O)[C@H](CC(C)C)NC(=O)[C@H](CCCCN)NC(=O)[C@H](CCCCN)NC(=O)[C@H](CC(C)C)NC(=O)[C@H](C)NC(=O)[C@H](CCCCN)NC(=O)[C@H](CCCCN)NC(=O)[C@H](CC(C)C)NC(=O)[C@H](C)NC(=O)[C@H](CCCCN)NC(=O)[C@H](CC(C)C)NC(=O)[C@H](C)NC(=O)[C@H](CC(C)C)NC(=O)[C@H](C)NC(=O)[C@H](Cc1ccccc1)NC(=O)CNC(=O)[C@@H]1CCCN1C(=O)[C@H](CCCNC(=N)N)NC(=O)[C@H](CC(C)C)NC(=O)CNC(=O)[C@H](Cc1ccc(O)cc1)NC(=O)[C@H](CO)NC(=O)[C@H](Cc1c[nH]c2ccccc12)NC(=O)[C@H](Cc1c[nH]cn1)NC(=O)[C@@H]1CCC(=O)N1)C(=O)O [LHRH-Hecate] ([pGlu]HWSYGLRPGFALALKALKKALKKLKKALKKAL-OH; C-terminus assumed)
change of tumor volumes (and tumor weights) ([1]; during and after treatment): arrested at the start of treatment and then diminished significantly; also recorded: decreased
lymph node metastases, assayed by luciferase activity at necropsy ([1]; mouse, in vivo): destroyed
tumor weights at necropsy [1]: 0.07 ± 0.04 g

LHRH-Glu-SPION: LHRH bound to SPION through a glutaric acid spacer (Examples 5 and 7) (QHWSYGLRPG; ends and bridges not checked; also: bound to SPION through a glutaric acid spacer, site not given here; UniProt P01148 24-33, looked up)
iron accumulation in the breast cancer cells [2]: 223±16 pg/cell
iron accumulation in the breast cancer cells in the presence of LHRH [2]: 123±25 pg/cell

LHRH−SPION: Fe3O4 magnetite nanoparticles covalently bound to LHRH by carbodiimide reaction (Example 3)
charge of nanoparticles (in words) [3]: almost neutral
tumors testing positive for iron (Prussian blue staining) [4]: Four of six
iron located in the tumor (estimate of iron content in tumor and kidney) [5]: up to 70%
observed uptake [6]: 452 pg Fe/cell
ligand-mediated uptake in cell lines that did not express the appropriate receptors [7]: did not bind and accumulate; also recorded: substantially lower
fraction of injected particles accumulated in primary tumors and metastases [8]: up to 60%
relation of level accumulated in the lungs to metastatic load (luciferase activity) [8]: linear function of the metastatic load
percentage of iron accumulating in kidney ([8]; iv, 250 mg/kg): 3.3%
percentage of iron accumulating in lung ([8]; iv, 250 mg/kg): 22.2%
percentage of iron accumulating in lung (tumor-free mice): 0.9%
retention of nanoparticles inside the target cells [9]: at least four weeks
difference in macrophage uptake, SPIONs versus LHRH-SPIONs (human macrophages): thirteen-fold
fraction taken up by macrophages (human macrophages): about 5%
iron accumulation in the breast cancer cells [2]: 165±16 pg/cell
iron accumulation in the breast cancer cells in the presence of LHRH [2]: 106±26 pg/cell
toxicity [10]: not toxic
tumor weights at necropsy [1]: 0.24 ± 0.09 g
predicted depletion of iron from tumor and metastatic tissues [11]: slower depletion
predicted iron content in kidney, liver and spleen over time [11]: decrease rather rapidly with time
accumulation in tumor tissue compared to normal (kidney) tissue [12]: preferentially accumulate in tumor tissue

iron oxide nanoparticles
adverse effects (rats): no adverse effects
